Test results: patent US20260130901A1, “CGRP RECEPTOR ANTAGONIST FOR THE TREATMENT OF MIGRAINE” (ALLERGAN PHARMACEUTICALS INTERNATIONAL LIMITED, priority 2022, published 2026)

System: participants with migraine (qualifying prodrome events)
Assay: Phase 3 crossover study: absence of prodrome symptoms over time
Format: in vivo, human
Conditions: 100 mg in prodrome; for Absence of dizziness, Nonresponder (%) / Absence of dizziness, Odds ratio vs. placebo / Absence of dizziness, Responder (%) / Absence of fatigue, Nonresponder (%) / Absence of fatigue, Odds ratio vs. placebo / Absence of fatigue, Responder (%) / Absence of neck pain, Nonresponder (%) / Absence of neck pain, Odds ratio vs. placebo / Absence of neck pain, Responder (%) / Absence of sensitivity to light, Nonresponder (%) / Absence of sensitivity to light, Odds ratio vs. placebo / Absence of sensitivity to light, Responder (%) / Absence of sensitivity to sound, Nonresponder (%) / Absence of sensitivity to sound, Odds ratio vs. placebo / Absence of sensitivity to sound, Responder (%): participants with symptom at predose
Description: A phase 3, multicenter, randomized, double-blind, placebo-controlled, crossover study was carried out to evaluate the efficacy, safety, and tolerability of oral ubrogepant in the acute treatment of migraine when administered during the prodrome. The study evaluated whether treatment during the initial phase of a migraine attack (i.e., the prodrome or premonitory phase) prior to the onset of headache, can attenuate the severity of the headache phase and reduce disability.
Eligible participants were randomized (1:1) to treatment sequences A or B in this crossover study. Participants randomized to Treatment Sequence A received placebo to treat their first qualifying prodrome event and ubrogepant 100 mg to treat their second qualifying prodrome event. For those randomized to Treatment Sequence B, they received the reverse: ubrogepant 100 mg to treat their first qualifying prodrome event and placebo to treat their second qualifying prodrome event.
N1 is the number of participants with the prodrome symptom at predose. N2 is the number of participants with non-missing prodrome symptom intensity assessment by timepoint after dose. The proportion of events with absence of sensitivity to light after ubrogepant 100 mg was numerically greater than after placebo, starting at 2 hours post-dose and extending through 48 hours (nominal P≤0.0109 for hours 2-8).
N1 is the number of participants with the prodrome symptom at predose. N2 is the number of participants with non-missing prodrome symptom intensity assessment by timepoint after dose. The difference in response rates was nominally significant for the ubrogepant 100 mg dose group compared with placebo as early as 3 hours post-dose administered during the prodrome.
N1 is the number of participants with the prodrome symptom at predose. N2 is the number of participants with non-missing prodrome symptom intensity assessment by timepoint after dose.

## C[C@@H]1[C@H](c2ccccc2)C[C@H](NC(=O)c2cnc3c(c2)C[C@@]2(C3)C(=O)Nc3ncccc32)C(=O)N1CC(F)(F)F [Ubrogepant, (3′S)—N-((3S,5S,6R)-6-methyl-2-oxo-5-phenyl-1-(2,2,2-trifluoroethyl)piperidin-3-yl)-2′-oxo-1′,2′,5,7-tetrahydrospiro[cyclopenta[b]pyridine-6,3′-pyrrolo[2,3-b]pyridine]-3-carboxamide]
  Response rates vs placebo, absence of dizziness: Numerically higher response rates
  Response rates vs placebo, absence of sensitivity to sound: Numerically higher response rates
1 Hour post dose
  Absence of dizziness, Nonresponder (%): (90.0) %
  Absence of dizziness, Odds ratio vs. placebo: 0.96
  Absence of dizziness, Responder (%): (10.0) %
  Absence of fatigue, Nonresponder (%): (95.1) %
  Absence of fatigue, Odds ratio vs. placebo: 1.23
  Absence of fatigue, Responder (%): (4.9) %
  Absence of neck pain, Nonresponder (%): (95.8) %
  Absence of neck pain, Odds ratio vs. placebo: 1.43
  Absence of neck pain, Responder (%): (4.2) %
  Absence of sensitivity to light, Nonresponder (%): (95.2) %
  Absence of sensitivity to light, Odds ratio vs. placebo: 1.08
  Absence of sensitivity to light, Responder (%): (4.8) %
  Absence of sensitivity to sound, Nonresponder (%): (92.0) %
  Absence of sensitivity to sound, Odds ratio vs. placebo: 1.23
  Absence of sensitivity to sound, Responder (%): (8.0) %
2 Hours post dose
  Absence of dizziness, Nonresponder (%): (70.7) %
  Absence of dizziness, Odds ratio vs. placebo: 1.17
  Absence of dizziness, Responder (%): (29.3) %
  Absence of fatigue, Nonresponder (%): (81.6) %
  Absence of fatigue, Odds ratio vs. placebo: 1.43
  Absence of fatigue, Responder (%): (18.4) %
  Absence of neck pain, Nonresponder (%): (84.6) %
  Absence of neck pain, Odds ratio vs. placebo: 1.39
  Absence of neck pain, Responder (%): (15.4) %
  Absence of sensitivity to light, Nonresponder (%): (80.5) %
  Absence of sensitivity to light, Odds ratio vs. placebo: 1.72
  Absence of sensitivity to light, Responder (%): (19.5) %
  Absence of sensitivity to sound, Nonresponder (%): (74.7) %
  Absence of sensitivity to sound, Odds ratio vs. placebo: 1.59
  Absence of sensitivity to sound, Responder (%): (25.3) %
3 Hours post dose
  Absence of dizziness, Nonresponder (%): (60.7) %
  Absence of dizziness, Odds ratio vs. placebo: 1.60
  Absence of dizziness, Responder (%): (39.3) %
  Absence of fatigue, Nonresponder (%): (72.7) %
  Absence of fatigue, Odds ratio vs. placebo: 1.85
  Absence of fatigue, Responder (%): (27.3) %
  Absence of neck pain, Nonresponder (%): (71.1) %
  Absence of neck pain, Odds ratio vs. placebo: 2.04
  Absence of neck pain, Responder (%): (28.9) %
  Absence of sensitivity to light, Nonresponder (%): (67.6) %
  Absence of sensitivity to light, Odds ratio vs. placebo: 1.58
  Absence of sensitivity to light, Responder (%): (32.4) %
  Absence of sensitivity to sound, Nonresponder (%): (64.4) %
  Absence of sensitivity to sound, Odds ratio vs. placebo: 1.45
  Absence of sensitivity to sound, Responder (%): (35.6) %
4 Hours post dose
  Absence of dizziness, Nonresponder (%): (50.0%
  Absence of dizziness, Odds ratio vs. placebo: 1.37
  Absence of dizziness, Responder (%): (50.0) %
  Absence of fatigue, Nonresponder (%): (65.2) %
  Absence of fatigue, Odds ratio vs. placebo: 1.93
  Absence of fatigue, Responder (%): (34.8) %
  Absence of neck pain, Nonresponder (%): (61.3) %
  Absence of neck pain, Odds ratio vs. placebo: 2.27
  Absence of neck pain, Responder (%): (38.7) %
  Absence of sensitivity to light, Nonresponder (%): (55.2) %
  Absence of sensitivity to light, Odds ratio vs. placebo: 1.46
  Absence of sensitivity to light, Responder (%): (44.8) %
  Absence of sensitivity to sound, Nonresponder (%): (49.3) %
  Absence of sensitivity to sound, Odds ratio vs. placebo: 1.97
  Absence of sensitivity to sound, Responder (%): (50.7) %
6 Hours post dose
  Absence of dizziness, Nonresponder (%): (37.8) %
  Absence of dizziness, Odds ratio vs. placebo: 1.45
  Absence of dizziness, Responder (%): (62.2) %
  Absence of fatigue, Nonresponder (%): (56.3) %
  Absence of fatigue, Odds ratio vs. placebo: 1.46
  Absence of fatigue, Responder (%): (43.7) %
  Absence of neck pain, Nonresponder (%): (52.0) %
  Absence of neck pain, Odds ratio vs. placebo: 1.68
  Absence of neck pain, Responder (%): (48.0) %
  Absence of sensitivity to light, Nonresponder (%): (42.1) %
  Absence of sensitivity to light, Odds ratio vs. placebo: 1.75
  Absence of sensitivity to light, Responder (%): (57.9) %
  Absence of sensitivity to sound, Nonresponder (%): (43.3) %
  Absence of sensitivity to sound, Odds ratio vs. placebo: 1.44
  Absence of sensitivity to sound, Responder (%): (56.7) %
8 Hours post dose
  Absence of dizziness, Nonresponder (%): (27.9) %
  Absence of dizziness, Odds ratio vs. placebo: 1.33
  Absence of dizziness, Responder (%): (72.1) %
  Absence of fatigue, Nonresponder (%): (46.1) %
  Absence of fatigue, Odds ratio vs. placebo: 1.87
  Absence of fatigue, Responder (%): (53.9) %
  Absence of neck pain, Nonresponder (%): (49.7) %
  Absence of neck pain, Odds ratio vs. placebo: 1.40
  Absence of neck pain, Responder (%): (50.3) %
  Absence of sensitivity to light, Nonresponder (%): (28.9) %
  Absence of sensitivity to light, Odds ratio vs. placebo: 2.40
  Absence of sensitivity to light, Responder (%): (71.1) %
  Absence of sensitivity to sound, Nonresponder (%): (33.8) %
  Absence of sensitivity to sound, Odds ratio vs. placebo: 1.75
  Absence of sensitivity to sound, Responder (%): (66.2) %
24 Hours post dose
  Absence of dizziness, Nonresponder (%): (11.5) %
  Absence of dizziness, Odds ratio vs. placebo: 1.82
  Absence of dizziness, Responder (%): (88.5) %
  Absence of fatigue, Nonresponder (%): (31.4) %
  Absence of fatigue, Odds ratio vs. placebo: 1.19
  Absence of fatigue, Responder (%): (68.6) %
  Absence of neck pain, Nonresponder (%): (28.6) %
  Absence of neck pain, Odds ratio vs. placebo: 1.42
  Absence of neck pain, Responder (%): (71.4) %
  Absence of sensitivity to light, Nonresponder (%): (18.1) %
  Absence of sensitivity to light, Odds ratio vs. placebo: 1.37
  Absence of sensitivity to light, Responder (%): (81.9) %
  Absence of sensitivity to sound, Nonresponder (%): (16.9) %
  Absence of sensitivity to sound, Odds ratio vs. placebo: 1.38
  Absence of sensitivity to sound, Responder (%): (83.1) %
48 Hours post dose
  Absence of dizziness, Nonresponder (%): (10.5) %
  Absence of dizziness, Odds ratio vs. placebo: 1.66
  Absence of dizziness, Responder (%): (89.5) %
  Absence of fatigue, Nonresponder (%): (22.9) %
  Absence of fatigue, Odds ratio vs. placebo: 1.22
  Absence of fatigue, Responder (%): (77.1) %
  Absence of neck pain, Nonresponder (%): (22.2) %
  Absence of neck pain, Odds ratio vs. placebo: 1.01
  Absence of neck pain, Responder (%): (77.8) %
  Absence of sensitivity to light, Nonresponder (%): (11.8) %
  Absence of sensitivity to light, Odds ratio vs. placebo: 1.52
  Absence of sensitivity to light, Responder (%): (88.2) %
  Absence of sensitivity to sound, Nonresponder (%): (11.7) %
  Absence of sensitivity to sound, Odds ratio vs. placebo: 0.93
  Absence of sensitivity to sound, Responder (%): (88.3) %
mITT
  Effect on the most commonly reported prodrome symptoms compared with placebo: ameliorated the most commonly reported prodrome symptoms
post-dose
  Earliest time at which difference in response rates vs placebo was nominally significant, absence of fatigue: 3 h
  Earliest time at which difference in response rates vs placebo was nominally significant, absence of neck pain: 3 h
